Read-outs that look alike come from different tables or passages of the source. Residues, ends and D or L forms follow the SMILES beside them. *: point of attachment. Cbz = O=C(OCc1ccccc1)*; CH2F = FC*
How the values were obtained:
[1] = tested on: c-Myc protein; experiment: Protein degradation inhibitors on PGG-induced c-Myc degradation; type: cell-based, human; details: co-treatment with PGG, Huh7 cells, FIG. 45
[2] = tested on: human glycine N-methyltransferase promoter; experiment: GNMT promoter-driven luciferase reporter assay in H7GPL cells; type: cell-based; details: for fold induction at 10 µM: Homo sapiens, H7GPL, read-out: Fold change (10 uM)
Protocol: Please refer to FIG. 1, which illustrates the configuration of pLV-GNMTpLuc plasmid. HEK293T cells were cotransfected with a packaging plasmid-pCMV-ΔR8.91, a VSV-G envelope expressing plasmid-pMD.G and pLV-GNMTpLuc using TurboFect™ Reagent (Fermentas, Hanover, Md.). One resultant colony was picked, amplified and denominated as H7GPL (HuH-7-GNMT promoter-Luciferase). The relative luciferase activity (RLA) was calculated as “activity of luciferase/intensity of alamarBlue fluorescence”. The fold changes in GNMT promoter induction was calculated as “RLA of drug/RLA of solvent control”. Compounds with the ability to activate human glycine N-methyltransferase promoter in H7GPL could serve as a citeria for screening drugs.
Please refer to FIG. 2, which illustrates the luciferase activity in a screening platform. Previously, 26 FDA approved drugs were identified that can reverse the gene expression signature of HCC. We obtained 26 drugs. H7GPL cells were seeded in 96-well plates for 18 hours and then were treated with these 26 drugs and solvent control for an extra 24 hours.
In the initial screening, when (individual luciferase activity−average luciferase activity of all hits)/standardized Z scores of all samples is greater than 1.5, it means the compound has the capability of enhancing the GNMT reporter activity.
Huh7 cells were infected with this virus and selected with puromycin-containing medium. One resultant colony was picked, amplified and denominated as H7GPL (Huh7 GNMT promoter-luciferase). The cell lysate of H7GPL was used for luciferase activity measurement using the Luciferase Assay System (Promega).
For primary screening, H7GPL cells seeded in 96-well plates were treated for 24 h with individual drugs at a concentration of 2 mg/mL for crude extracts and 0.2 mg/mL for pure compounds and then were lysed for the luciferase activity assay using the Luciferase Assay System (Promega, Madison, Wis., USA).
Reporter activity for each well was transformed to the Z score by using data from all assay plates.
Then, hits of primary screening were sorted by Z score ≥1.5 and used for secondary screening.
And then placed in the above-described culture plate H7GPL cell replication, and after the disposal of seized goods in those 20 hours, the company added AbD serotec Reagent (Oxford, UK), further cultured for 4 hours.
The cytotoxicity was measured according to the manufacturer's recommendation for assessing the reporter gene.
Drugs that induced GNMT promoter activity ≥1.5-fold were considered as hits of the secondary screen with the capability of enhancing the activity of GNMT.

[3] = tested on: Huh7 cells; experiment: Combination treatment, Huh7 xenograft tumor volume; type: in vivo, NOD-SCID mice; details: sorafenib 10 mpk; F3-6 25 mpk or 300 mpk
Protocol: Please refer to FIG. 29, which illustrates the tumor volume, wherein the numeral 1 is for a physiological saline solution, the numeral 2 is for F3-6 (25 mg/kg (mpk)), the numeral 3 is for F3-6 (300 mpk), the numeral 4 is for sorafenib (10 mpk), the numeral 5 is for F3-6 (25 mpk) with sorafenib (10 mpk), and the numeral 6 is for PGG (25 mpk) with sorafenib (10 mpk).
To assess the combinatory effect of drugs, female nonobese diabetic/severe combined immunodeficiency (NOD-SCID) mice lacking thymus gland were injected with Huh7 cells (2×10^6).
Mice are administered F3-6 (25 mpk), F3-6 (300 mpk) or PGG (25 mpk) three times per week, and sorafenib (10 mpk) twice per week alone or combined with F3-6 or PGG as illustrated in FIG. 29.
(§1) Tumor growth was monitored (every day or three times per week) by using Vernier caliper measurement of the length (L) and width (W) of the tumor.
(§2) Tumor volume (TV) was calculated by using the formula volume=(L×W^2)/2.

[4] = tested on: Huh7-GNMT cells; experiment: Sorafenib cell viability in Huh7-GFP and Huh7-GNMT cells; type: cell-based, human; details: 2.5 μM sorafenib
Protocol: The cell viability is determined after Huh7-GFP cells capable of expressing Green fluorescent protein (GFP) and Huh7-GNMT cells are treated with an increased concentration of sorafenib.
Please refer to FIG. 26, which illustrates the effect of sorafenib on cell proliferation, wherein numerals 1 and 2 denote Huh7-GFP cells and Huh7-GNMT respectively.
Stablized cells comprises Huh7-GFP, Huh7-GNMT, Huh7-shGNMT, Huh7-shLacZ and Huh7-shMyc, which are established via the lentivirus system and cultured in Dulbecco's Modified Eagle's Medium (DMEM) (Gibco BRL, Grand Island, N.Y., USA) with 1 μg/ml puromycin.

[5] = tested on: Huh7-GFP and Huh7-GNMT transfected cells; experiment: Sorafenib in Huh7-GFP / Huh7-GNMT xenograft; type: in vivo, NOD-SCID mice
Protocol: To assess the effect of additional GNMT to administering sorafenib, female nonobese diabetic/severe combined immunodeficiency (NOD-SCID) mice lacking thymus gland were subcutaneously injected with […] or Huh7-GFP cells. The mice were randomly grouped and treated with a sorafenib or a physiological saline. Overexpression of GNMT inhibits cancer cell proliferation compared to the tumor due to Huh7-GFP cells.
Please refer to FIG. 27, which illustrates that the tumor cells are treated with the compound of sorafenib, wherein the numeral 1 is for Huh7-GFP transfected cells administered with a physiological saline, the numeral 2 is for Huh7-GNMT transfected cells administered with a physiological saline, the numeral 3 is for Huh7-GFP transfected cells administered with 10 mg/kg sorafenib and the numeral 4 is for Huh7-GNMT transfected cells administered with 10 mg/kg sorafenib. […] Based on the above results, a survey for the effect of PGG combined with sorafenib as a combination therapy to liver cancer was conducted. […]
as §1, §2

[6] = GNMT promoter induction, RLA of drug/RLA of solvent control, 10 uM, 24 hours

## COC(=O)C[C@H](NC(=O)[C@H](C)NC(=O)[C@@H](NC(=O)OCc1ccccc1)C(C)C)C(=O)CF [Z-VAD-FMK, N-Benzyloxycarbonyl-Val-Ala-Asp (Ome)fluoromethyl ketone] (Cbz-Val-Ala-Asp(OMe)-CH2F)
[1]
  prevention of PGG-induced c-Myc degradation / inhibition of c-Myc protein expression: can prevent

## O=c1cc(-c2ccc(O)c(O)c2)oc2cc(O)cc(O)c12 [Luteolin]
[2]; H7GPL luciferase
  GNMT promoter activity (in words): remarkably induced GNMT promoter activity
[2]; [6]
  fold induction at 10 µM: 1.9

## O=C(O)CN(CCN(CC(=O)O)CC(=O)O)CC(=O)O [EDTA, ethylenediamine-tetraacetic acid]
[1]
  prevention of PGG-induced c-Myc degradation / inhibition of c-Myc protein expression: can not prevent

## CC(C)COCC(CN(Cc1ccccc1)c1ccccc1)N1CCCC1 (stereo not drawn) [Bepridil]
[2]; [6]
  fold induction at 10 µM: 0.7

## CN(C)CCCN1c2ccccc2Sc2ccc(Cl)cc21 [Chlorpromazine]
[2]; [6]
  fold induction at 10 µM: 0.7

## Tyloxapol
[2]; [6]
  Fold change (10 uM): 0.6

## Cl.N [NH4Cl]
[1]
  prevention of PGG-induced c-Myc degradation / inhibition of c-Myc protein expression: can not prevent

## OC(c1cc(C(F)(F)F)nc2c(C(F)(F)F)cccc12)C1CCCCN1 (stereo not drawn) [Mefloquine]
[2]; [6]
  fold induction at 10 µM: 0.3

## COC(=O)Nc1nc2ccc(C(=O)c3ccccc3)cc2[nH]1 [Mebendazole]
[2]; [6]
  fold induction at 10 µM: 1

## CNC(=O)c1cc(Oc2ccc(NC(=O)Nc3ccc(Cl)c(C(F)(F)F)c3)cc2)ccn1 [sorafenib, 4-[4-[[4-chloro-3-(trifluoromethyl)phenyl]carbamoylamino]phenoxy]-N-methyl-pyridine-2-carbox-amide]
[3]
  tumor growth, single drug: effective in inhibiting the tumor growth
[4]
  viability of GNMT stable cells compared to GFP control cells: decreased significantly
[5]; 10 mg/kg
  size of the tumor, Huh7-GNMT transfected cells, compared with other groups: reducing the size of the tumor is statistically significant
[5]; oral 10 mpk, three days a week
  tumor growth: significantly inhibits tumor growth

## CC(COc1ccccc1)N(CCCl)Cc1ccccc1 (stereo not drawn) [Phenoxybenzamine]
[2]; 24 h
  fold induction at 10 µM: 0.7

## Clc1ccc(C(OCCN2CCCCC2)c2ccccc2)cc1 (stereo not drawn) [Cloperastine]
[2]; 24 h
  fold induction at 10 µM: 1

## O=C(O)c1cc(O)c(O)c(O)c1 [gallic acid]
[2]; H7GPL luciferase
  GNMT promoter activity (in words): none of which can either affect the activity of GNMT promoter

## CN1CCN(CCCN2c3ccccc3Sc3ccc(Cl)cc32)CC1 [Prochlorperazine]
[2]; [6]
  fold induction at 10 µM: 0.7

## CC1=C(CO)C(=O)O[C@@H]([C@@H](C)[C@H]2CC[C@H]3[C@@H]4C[C@H]5O[C@]56[C@@H](O)C=CC(=O)[C@]6(C)[C@H]4CC[C@]23C)C1 [withaferin A]
[2]; [6]
  Fold change (10 uM): 0

## CSc1ccc2c(c1)N(CCC1CCCCN1C)c1ccccc1S2 (stereo not drawn) [Thioridazine]
[2]; [6]
  fold induction at 10 µM: 0.1

## CC(/C=C/C(=O)NO)=C\[C@@H](C)C(=O)c1ccc(N(C)C)cc1 [trichostatin A]
[2]; GNMT promoter induction, 0.2 uM, 24 hours
  Fold change (0.2 uM): 3.4 with Fold
[2]; H7GPL luciferase
  GNMT promoter activity (in words): remarkably induced GNMT promoter activity

## CN1CCN(CCCN2c3ccccc3Sc3ccc(C(F)(F)F)cc32)CC1 [Trifluoperazine]
[2]; [6]
  fold induction at 10 µM: 0.1

## O=C(CCCCCCC(=O)Nc1ccccc1)NO [suberoylanilide hydroxamic acid]
[2]; H7GPL luciferase
  GNMT promoter activity (in words): remarkably induced GNMT promoter activity
  dose dependence of GNMT promoter activity: dose-dependently
[2]; H7GPL luciferase, listed as SAHA
  GNMT promoter activity (in words): potent GNMT inducer
[2]; 24 h
  fold induction at 10 µM: 18.6

## Cc1cc(C2CCCCC2)n(O)c(=O)c1 [Ciclopirox]
[2]; H7GPL luciferase
  GNMT promoter activity (in words): remarkably induced GNMT promoter activity
[2]; [6]
  fold induction at 10 µM: 8.2

## O=C1Nc2ccc3ncsc3c2/C1=C/Nc1ccc(S(=O)(=O)Nc2ccccn2)cc1 [GW-8510]
[2]; [6]
  Fold change (10 uM): 0.4

## Cc1cc(/C=C/c2ccc3cc(N(C)C)ccc3[n+]2C)c(C)n1-c1ccccc1 [Pyrvinium]
[2]; [6]
  fold induction at 10 µM: 0.5

## O=c1cc(-c2ccc(O)cc2)oc2cc(O)cc(O)c12 [Apigenin]
[2]; H7GPL luciferase
  GNMT promoter activity (in words): remarkably induced GNMT promoter activity
[2]; [6]
  fold induction at 10 µM: 1.8

## COc1ccccc1N1CCN(CCCCNC(=O)c2ccc3ccccc3c2)CC1.Cl.Cl [DO 897/99]
[2]; [6]
  Fold change (10 uM): 0.9

## Clc1ccc(CSC(Cn2ccnc2)c2ccc(Cl)cc2Cl)cc1 (stereo not drawn) [Sulconazole]
[2]; [6]
  fold induction at 10 µM: 0.5

## Oc1c(I)cc(Cl)c2cccnc12 [clioquinol(quinoinol), clioquinol]
[2]; H7GPL luciferase
  GNMT promoter activity (in words): remarkably induced GNMT promoter activity
[2]; [6]
  fold induction at 10 µM: 3.8

## C=CCNC1=C2C[C@@H](C)C[C@H](OC)[C@H](O)[C@@H](C)/C=C(\C)[C@H](OC(N)=O)[C@@H](OC)/C=C\C=C(/C)C(=O)NC(=CC1=O)C2=O [Tanespimycin]
[2]; [6]
  fold induction at 10 µM: 0.5

## CCCC[C@@H](C=O)NC(=O)[C@H](CC(C)C)NC(=O)OCc1ccccc1 [calpeptin, N-Benzyloxy-carbonyl-L-leucyl-L-norleucinal]
[1]
  prevention of PGG-induced c-Myc degradation / inhibition of c-Myc protein expression: can not prevent

## Cc1cc2cc3c(C)cc(=O)oc3c(C)c2o1 [Trioxysalen]
[2]; 24 h
  fold induction at 10 µM: 1.2

## C[n+]1cc2c3c(ccc2c2ccc4cc5c(cc4c21)OCO5)OCO3 [Sanguinarine]
[2]; 24 h
  fold induction at 10 µM: 0.1

## OCCN(CCO)c1nc(N2CCCCC2)c2nc(N(CCO)CCO)nc(N3CCCCC3)c2n1 [Dipyridamole]
[2]; [6]
  fold induction at 10 µM: 0.9

## CC[C@@]1(O)C(=O)OCc2c1cc1n(c2=O)Cc2cc3ccccc3nc2-1 [Camptothecin]
[2]; [6]
  fold induction at 10 µM: 0.4

## CCN(CC)CCCC(C)Nc1ccnc2cc(Cl)ccc12 (stereo not drawn) [chloroquine diphosphate]
[1]
  prevention of PGG-induced c-Myc degradation / inhibition of c-Myc protein expression: can not prevent

## CC(C)C[C@@H](C=O)NC(=O)[C@H](CC(C)C)NC(=O)[C@H](CC(C)C)NC(=O)OCc1ccccc1 [MG132, Z-LEU-LEU-LEU-CHO] (Cbz-Leu-Leu-Leu-aldehyde)
[1]
  prevention of PGG-induced c-Myc degradation / inhibition of c-Myc protein expression: can not prevent
